Ki data for 25 compounds are collected here from patent publication US10988459B2 (priority 2015, dated 2021).

The target of the assay is human RIP1 kinase domain (2-375) (Homo sapiens (Human), UniProt Q13546). The experiment in a line: biochemical. It counts as biochemical. To be noted: tight-binding apparent inhibition constant; human RIP1 kinase domain (2-375) 50 nM, 50 uM ATP, 2 hours; read-out: Ki. The method, boiled down: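 50 nM purified kinase domain from baculovirus-infected insect cells, incubated 2 h with compound in 50 mM Hepes pH 7.5, 30 mM MgCl2, 1 mM DTT, 50 uM ATP, 0.002% Brij-35, 0.5% DMSO. ADP formation read by Transcreener FP at 633 nm excitation. Ki^app fitted with the Morrison tight-binding equation.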
Sequence of human RIP1 kinase domain (2-375) (Q13546 2-375): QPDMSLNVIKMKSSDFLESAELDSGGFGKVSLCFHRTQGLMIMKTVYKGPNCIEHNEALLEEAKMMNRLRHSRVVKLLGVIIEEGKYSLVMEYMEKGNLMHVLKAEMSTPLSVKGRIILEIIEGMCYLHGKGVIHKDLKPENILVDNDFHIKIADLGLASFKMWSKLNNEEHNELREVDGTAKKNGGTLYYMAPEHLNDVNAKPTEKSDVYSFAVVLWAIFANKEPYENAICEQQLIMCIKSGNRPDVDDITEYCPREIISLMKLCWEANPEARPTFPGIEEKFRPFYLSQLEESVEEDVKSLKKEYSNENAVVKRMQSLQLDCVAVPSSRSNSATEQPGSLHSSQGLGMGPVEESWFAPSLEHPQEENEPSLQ

As for `CN1C(=O)[C@@H](NC(=O)c2ncn(Cc3ccccc3C(F)(F)F)n2)CCn2nccc21` [Example 583, N-(6S)-4-methyl-5-oxo-7,8-dihydro-6H-pyrazolo[1,5-a][1,3]diazepin-6-yl]-1-[[2-(trifluoromethyl)phenyl]methyl-1,2,4-triazole-3-carboxamide], the Ki was 24 nM.
In the case of `Cc1cc2n(n1)CC[C@H](NC(=O)c1ncn(Cc3ccccc3C(F)(F)F)n1)C(=O)N2C` [Example 584, N-(6S)-2,4-dimethyl-5-oxo-7,8-dihydro-6H-pyrazolo[1,5-a][1,3]diazepin-6-yl-1-[[2-(trifluoromethyl)phenyl]methyl]-1,2,4-triazole-3-carboxamide], the Ki was found to be 25 nM.
On to `Cc1cc2n(n1)CC[C@H](NC(=O)c1ncn(Cc3ccccc3)n1)C(=O)N2` [Example 586], for which the Ki was found to be 63 nM.
The figure for `COc1ccccc1Cn1cnc(C(=O)N[C@H]2CCn3nccc3N(C)C2=O)n1` [Example 587, 1-[(2-methoxyphenyl)methyl]-N-(6S)-4-methyl-5-oxo-7,8-dihydro-6H-pyrazolo[1,5-a][1, 3]diazepin-6-yl-1,2,4-triazole-3-carboxamide] is 47 nM; for `Cc1ccccc1Cn1cnc(C(=O)N[C@H]2CCn3nccc3N(C)C2=O)n1` [Example 588, 1-(o-tolylmethyl)-N-(6S)-4-methyl-5-oxo-7,8-dihydro-6H-pyrazolo[1,5-a][1,3]diazepin-6-yl-1,2,4-triazole-3-carboxamide] it is 13 nM; for `COc1ccccc1Cn1cnc(C(=O)N[C@H]2CCn3nc(C)cc3N(C)C2=O)n1` [Example 589, 1-[(2-methoxyphenyl)methyl]-N-(6S)-2,4-dimethyl-5-oxo-7,8-dihydro-6H-pyrazolo[1,5-a][1,3]diazepin-6-yl-1,2,4-triazole-3-carboxamide] it is 48 nM.
The figure for `Cc1cc2n(n1)CC[C@H](NC(=O)c1ncn(Cc3ccccc3C#N)n1)C(=O)N2C` [Example 590, 1-[(2-cyanophenyl)methyl]-N-(6S)-2,4-dimethyl-5-oxo-7,8-dihydro-6H-pyrazolo[1,5-a][1, 3]diazepin-6-yl-1,2,4-triazole-3-carboxamide] is 700 nM; for `Cc1cc2n(n1)CC[C@H](NC(=O)c1ncn(Cc3ccccc3C)n1)C(=O)N2C` [Example 591, 1-(o-tolylmethyl)-N-(6S)-2,4-dimethyl-5-oxo-7,8-dihydro-6H-pyrazolo[1,5-a][1,3]diazepin-6-yl-1,2,4-triazole-3-carboxamide] it is 17 nM.
For the compound `COc1ccccc1Cn1cnc(C(=O)N[C@H]2CCn3nc(C4CC4)cc3N(C)C2=O)n1` [Example 592], the Ki worked out at 48 nM.
The result for `CN1C(=O)[C@@H](NC(=O)c2ncn(Cc3ccccc3C#N)n2)CCn2nc(C3CC3)cc21` [Example 593] reads 79 nM.
With `CN1C(=O)[C@@H](NC(=O)c2ncn(CC3CCC(F)(F)C3)n2)CCn2nc(C3CC3)cc21` (stereo partly shown) [Example 594], the Ki came out at 420 nM.
The result for `CN1C(=O)[C@@H](NC(=O)c2ncc3cnn(-c4c(F)cccc4F)c3n2)COc2ccccc21` [Example 595] reads 4.7 nM; that for `Cc1nc(C)n2c1N(C)C(=O)[C@H](NC(=O)c1ncn(Cc3ccccc3F)n1)CC2` [Example 596, 1-[(2-fluorophenyl)methyl]-N-(3R)-1,7,9-trimethyl-2-oxo-4,5-dihydro-3H-imidazo[1,5-a][1,3]diazepin-3-yl-1,2,4-triazole-3-carboxamide], 100 nM; that for `Cc1nc(C)n2c1N(C)C(=O)[C@H](NC(=O)c1ncn(Cc3c(F)cccc3F)n1)CC2` [Example 597, 1-[(2,6-difluorophenyl)methyl]-N-(3R)-1,7,9-trimethyl-2-oxo-4,5-dihydro-3H-imidazo[1,5-a][1,3]diazepin-3-yl-1,2,4-triazole-3-carboxamide], 130 nM.
The figure for `Cc1nc(C)n2c1N(C)C(=O)[C@H](NC(=O)c1ncn(Cc3cc(F)ccc3F)n1)CC2` [Example 598, 1-[(2,5-difluorophenyl)methyl]-N-(3R)-1,7,9-trimethyl-2-oxo-4,5-dihydro-3H-imidazo[1,5-a][1,3]diazepin-3-yl-1,2,4-triazole-3-carboxamide] is 130 nM; for `CN1C(=O)[C@H](NC(=O)c2ncn(Cc3ccccc3F)n2)CCn2cncc21` [Example 599, 1-[(2-fluorophenyl)methyl]-N-(3R)-1-methyl-2-oxo-4,5-dihydro-3H-imidazo[1,5-a][1,3]diazepin-3-yl-1,2,4-triazole-3-carboxamide] it is 35 nM.
For the compound `CN1C(=O)[C@H](NC(=O)c2ncn(Cc3c(F)cccc3F)n2)CCn2cncc21` [Example 600, 1-[(2,6-difluorophenyl)methyl]-N-[(3R)-1-methyl-2-oxo-4,5-dihydro-3H-imidazo[1,5-a][1,3]diazepin-3-yl]-1,2,4-triazole-3-carboxamide], the Ki was 50 nM.
Regarding `CN1C(=O)[C@H](NC(=O)c2ncn(Cc3ccccc3F)n2)CCn2ccnc21` [Example 601, 1-[(2-fluorophenyl)methyl]-N-(7R)-9-methyl-8-oxo-6,7-dihydro-5H-imidazo[1,2-a][1,3]diazepin-7-yl-1,2,4-triazole-3-carboxamide], the Ki worked out at 43 nM.
The result for `CN1C(=O)[C@H](NC(=O)c2ncn(Cc3c(F)cccc3F)n2)CCn2ccnc21` [Example 602, 1-[(2,6-difluorophenyl)methyl]-N-[(7R)-9-methyl-8-oxo-6,7-dihydro-5H-imidazo[1,2-a][1,3]diazepin-7-yl]-1,2,4-triazole-3-carboxamide] reads 31 nM; that for `CN1C(=O)[C@@H](NC(=O)c2ncn(Cc3ccccc3C#N)n2)CCn2nccc21` [Example 603, 1-[(2-cyanophenyl)methyl]-N-(6S)-4-methyl-5-oxo-7,8-dihydro-6H-pyrazolo[1,5-a][1,3]diazepin-6-yl-1,2,4-triazole-3-carboxamide], 370 nM; that for `Cc1ccccc1Cn1cnc(C(=O)N[C@H]2CCn3nc(C4CC4)cc3N(C)C2=O)n1` [Example 604], 21 nM.
Take `CC(C)n1ncc2cnc(C(=O)N[C@H]3COc4cc(F)cc(F)c4NC3=O)nc21` [Example 605, 1-isopropyl-N-[(3S)-6,8-difluoro-4-oxo-3,5-dihydro-2H-1,5-benzoxazepin-3-yl]pyrazolo[3,4-d]pyrimidine-6-carboxamide]: the Ki amounted to 9.5 nM.
The result for `Cc1cc(F)c2c(c1)OC[C@H](NC(=O)c1ncc3cnn(C(C)C)c3n1)C(=O)N2` [Example 606, 1-isopropyl-N-[(3S)-6-fluoro-8-methyl-4-oxo-3,5-dihydro-2H-1,5-benzoxazepin-3-yl]pyrazolo[3,4-d]pyrimidine-6-carboxamide] reads 4.8 nM; that for `CC(C)n1ncc2cnc(C(=O)N[C@H]3CCc4cc(F)cc(F)c4NC3=O)nc21` [Example 607, 1-isopropyl-N-[(3S)-7,9-difluoro-2-oxo-1,3,4,5-tetrahydro-1-benzazepin-3-yl]pyrazolo[3,4-d]pyrimidine-6-carboxamide], 28 nM; that for `Cc1nc(C)n2c1N(C)C(=O)[C@H](NC(=O)c1ncn(Cc3ccccc3)n1)CC2` [Example 608, 1-benzyl-N-(3R)-1,7,9-trimethyl-2-oxo-4,5-dihydro-3H-imidazo[1,5-a][1,3]diazepin-3-yl-1,2,4-triazole-3-carboxamide], 190 nM.
